Results published in patent US20090305993A1, “METHODS AND COMPOSITION FOR THE TREATMENT OF GASTROINTESTINAL DISORDERS” (IRONWOOD PHARMACEUTICALS, INC., priority 2006, published 2009).
Like-named read-outs stand apart in the source and are kept apart here. Where a SMILES comes first, the peptide text is derived from it. Bridges are numbered along the chain shown (N, C = ends).

Experiments:
[1] = test system: suckling mice; experiment: suckling mouse model of intestinal secretion (SuMi assay); format: in vivo; conditions: dose response, FIG. 5a, 5b
Method: In this model a test compound is administered to suckling mice that are between 7 and 9 days old. After the mice are sacrificed, the gastrointestinal tract from the stomach to the cecum is dissected (“guts”). The remains (“carcass”) as well as the guts are weighed and the ratio of guts to carcass weight is calculated. If the ratio is above 0.09, one can conclude that the test compound increases intestinal secretion. […] The effect of Zelnorm® was also studied.

[2] = molecular target: T1, GC-C receptors on the cell surface of human colonic cells (T84 cells) (Homo sapiens, UniProt P25092); experiment: competitive radioligand-binding assay on T84 cells
T1 construct: host or cells: T84 cells (whole cells in suspension)
T1 sequence (P25092 24-1073): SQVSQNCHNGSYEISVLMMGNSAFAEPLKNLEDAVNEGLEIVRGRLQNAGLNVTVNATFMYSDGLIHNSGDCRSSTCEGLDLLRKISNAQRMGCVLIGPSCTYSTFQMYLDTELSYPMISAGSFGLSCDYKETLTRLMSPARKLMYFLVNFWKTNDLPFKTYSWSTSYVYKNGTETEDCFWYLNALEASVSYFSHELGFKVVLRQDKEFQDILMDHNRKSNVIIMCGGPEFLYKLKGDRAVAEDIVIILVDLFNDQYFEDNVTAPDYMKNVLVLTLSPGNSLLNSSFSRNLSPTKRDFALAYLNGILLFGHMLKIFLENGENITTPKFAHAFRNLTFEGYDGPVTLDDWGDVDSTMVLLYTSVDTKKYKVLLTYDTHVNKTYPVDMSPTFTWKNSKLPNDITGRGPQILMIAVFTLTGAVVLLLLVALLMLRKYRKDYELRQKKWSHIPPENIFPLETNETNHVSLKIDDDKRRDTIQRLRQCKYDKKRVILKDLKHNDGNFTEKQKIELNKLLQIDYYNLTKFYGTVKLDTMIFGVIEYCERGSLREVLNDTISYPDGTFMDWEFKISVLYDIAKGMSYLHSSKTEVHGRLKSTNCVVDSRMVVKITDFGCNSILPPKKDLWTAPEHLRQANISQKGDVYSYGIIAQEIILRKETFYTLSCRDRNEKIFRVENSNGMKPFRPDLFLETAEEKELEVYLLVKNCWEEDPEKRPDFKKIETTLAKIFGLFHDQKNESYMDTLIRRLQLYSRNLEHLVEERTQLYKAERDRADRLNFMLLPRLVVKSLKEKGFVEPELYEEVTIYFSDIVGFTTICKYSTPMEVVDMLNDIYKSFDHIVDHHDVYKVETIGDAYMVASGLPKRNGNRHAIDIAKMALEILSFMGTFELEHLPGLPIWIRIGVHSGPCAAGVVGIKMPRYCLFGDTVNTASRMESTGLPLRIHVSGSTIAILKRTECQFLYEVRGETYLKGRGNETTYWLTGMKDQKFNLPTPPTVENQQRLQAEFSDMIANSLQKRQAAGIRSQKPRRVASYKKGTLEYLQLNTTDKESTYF
Method: The radiolabeled tracer used in these experiments was ^125I-SEQ ID NO:7. To determine binding constants, competitive inhibition of binding was used. T84 cells were cultured in T-150 plastic flasks in DMEM and Ham's F-12 medium containing 5% fetal bovine serum. Monolayers at 60-70% confluency (approximately 10^7 cells) were collected by gentle scraping followed by centrifugation, and washed twice in 50 mL of phosphate-buffered saline (PBS). The cells were resuspended in 1 mL DMEM containing 20 mM […] (Hepes), pH 7.0 and 0.5% bovine serum albumin (BSA). T84 cells were incubated with a constant amount of ^125I-SEQ ID NO:7 containing various concentrations of cold competitor. Free ^125I-SEQ ID NO:7 was separated from bound tracer by rapid suction filtration. The binding reactions were carried out in 1.5 mL microfuge tubes in 0.24 mL of DMEM/20 mM Hepes pH 7.0/0.5% BSA containing: 2.5×10^5 T84 cells (0.25 mg protein), 200,000 cpm ^125I-SEQ ID NO:7 (41 fmol, […]), and 0.01 to 1,000 nM competitor. Binding assays at pH 5.0 were done in DMEM/20 mM 2-(N-morpholino) ethanesulfonic acid (Mes), pH 5.0. Binding assays in pH 8.0 were done in DMEM/20 mM Hepes/50 mM sodium bicarbonate pH 8.0. One sample contained no competitor (B0) and another contained no cells. After incubation at 37° C. for 1 h, the reaction mixtures were applied to Whatman GF/B glass-fiber filters by suction filtration. The filters were then rinsed with 10 mL ice-cold PBS buffer, inserted into plastic tubes, and added to 2 mL scintillation fluid. Radioactivity was measured in a LS 6500 liquid scintillation counter (Beckman-Coulter). The percent bound in each sample is calculated by the equation:
% B/B0=(sample cpm−no cells cpm)×100/(B0 cpm−no cells cpm)
Competitive radioligand-binding curves were generated using the Graphpad PRISM™ computer program. […] The apparent dissociation equilibrium constant (Ki) for each competitor was obtained from the IC50 values and the previously reported estimate of the dissociation constant for the radioligand, Kd≈15 nM (Hamra et al. 1997 PNAS 2705-10) and the method of Cheng and Prusoff 1973 Biochem Pharmacol 22:3099-108. Using a two site model, high and low affinity-binding sites were identified on T84 cells (Ki1 and Ki2) for all the test agents. At pH 7.0. for SEQ ID NO:3 Ki1 ranged from 0.89-1.23 nM and Ki2 ranged from 88.9-156 nM.

[3] = molecular target: aminopeptidase (Sus scrofa, UniProt P15145); conditions: 37° C., up to 24 h
aminopeptidase, sequence (P15145 whole entry): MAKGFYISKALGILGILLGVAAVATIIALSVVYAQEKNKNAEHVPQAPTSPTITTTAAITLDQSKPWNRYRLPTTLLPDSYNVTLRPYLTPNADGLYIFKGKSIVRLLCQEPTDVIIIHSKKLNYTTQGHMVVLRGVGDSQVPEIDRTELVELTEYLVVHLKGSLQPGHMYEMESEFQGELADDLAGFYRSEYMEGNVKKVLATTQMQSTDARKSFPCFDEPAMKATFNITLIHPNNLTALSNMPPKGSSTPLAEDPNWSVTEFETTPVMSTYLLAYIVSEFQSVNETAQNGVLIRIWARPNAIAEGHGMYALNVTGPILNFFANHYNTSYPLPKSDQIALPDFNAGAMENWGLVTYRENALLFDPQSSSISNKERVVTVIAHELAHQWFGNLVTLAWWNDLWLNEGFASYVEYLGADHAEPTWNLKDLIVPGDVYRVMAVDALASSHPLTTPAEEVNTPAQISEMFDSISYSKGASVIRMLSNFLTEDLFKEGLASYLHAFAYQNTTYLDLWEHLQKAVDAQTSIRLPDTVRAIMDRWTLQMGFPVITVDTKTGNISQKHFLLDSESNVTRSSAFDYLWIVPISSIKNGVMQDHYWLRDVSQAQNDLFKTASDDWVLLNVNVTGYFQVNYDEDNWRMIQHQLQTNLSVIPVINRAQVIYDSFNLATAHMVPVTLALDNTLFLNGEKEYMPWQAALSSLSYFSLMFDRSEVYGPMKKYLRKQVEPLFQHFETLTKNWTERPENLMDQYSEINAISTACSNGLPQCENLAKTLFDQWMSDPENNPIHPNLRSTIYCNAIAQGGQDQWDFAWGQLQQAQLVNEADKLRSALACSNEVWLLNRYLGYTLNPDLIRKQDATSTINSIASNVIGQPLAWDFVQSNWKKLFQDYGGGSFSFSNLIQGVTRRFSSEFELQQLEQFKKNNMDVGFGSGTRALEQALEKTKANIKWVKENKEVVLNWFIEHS
Method: The stability of SEQ ID NO:3 in the presence of several mammalian digestive enzymes was determined. SEQ ID NO:3 was exposed to a variety of in vitro conditions including digestive enzymes and low ph environments designed to simulate gastric fluid. SEQ ID NO:3 was incubated with chymotrypsin, trypsin, pepsin, aminopeptidase, carboxypeptidase A, and simulated gastric fluid (sgf) at ph 1.0. Samples were collected at 0, 3, and 24 h for all conditions except pepsin digestion and the SGF. For the latter two conditions, samples were obtained at 0, 1, and 3 h. Negative control samples were prepared for initial and final time points. A separate, positive activity control was run in parallel to SEQ ID NO:3. All samples were analyzed by LC/MS
500 μL samples of 0.01 mg/mL SEQ ID NO:3 and chemically synthesized SEQ ID NO:4 (wild type ST; positive control) were prepared in the aminopeptidase reaction buffer (5 mM Tris-HCl, 5 mM MgCl2, pH 7.5) in 2 mL eppendorf tubes. 5 μL of a 5 mg/mL Bestatin hydrochloride (BioChemika, 08170; an aminopeptidase inhibitor) stock was added to each control sample (0 and 24 h), for a final concentration of 0.05 mg/mL. All control and test samples (0, 3, and 24 h) were incubated at 37° C. for 5 min. […] These standards were used to generate a standard curve for quantification of samples. […]

## C[C@@H]1NC(=O)[C@@H]2CCCN2C(=O)[C@H](CC(N)=O)NC(=O)[C@@H]2CSSC[C@H](N)C(=O)N[C@H]3CSSC[C@H](NC1=O)C(=O)N[C@@H]([C@@H](C)O)C(=O)NCC(=O)N[C@H](C(=O)N[C@@H](Cc1ccc(O)cc1)C(=O)O)CSSC[C@H](NC(=O)[C@H](Cc1ccc(O)cc1)NC(=O)[C@H](CCC(=O)O)NC3=O)C(=O)N2 [SEQ ID NO:3] (H-CCEYCCNPACTGCY-OH; disulfide 1-6, 2-10, 5-13; N-terminus and C-terminus assumed)
[1]
  intestinal secretion (ratio of guts to carcass weight): increase intestinal secretion
[2]; pH 5, 7 and 8
  effect of pH on binding to the high affinity site, Ki1: not affected by pH
[2]; pH 5.0, T84 cells, read-out: Ki1 (high affinity site)
  Ki: 1.38 nM
[2]; pH 5.0, T84 cells, read-out: Ki2 (low affinity site)
  Ki: 17 nM
[2]; pH 8.0, T84 cells, read-out: Ki1 (high affinity site)
  Ki: 0.6 nM
[2]; pH 8.0, T84 cells, read-out: Ki2 (low affinity site)
  Ki: 94.4 nM
[3]
  Cleavage of SEQ ID NO: 3 by proteolytic substance: not detectable
